From patent US20100280098A1, “RECEPTOR TARGETED OLIGONUCLEOTIDES” (priority 2007, published 2010)
“Also recorded” adds a separate entry of the source.

Assays:
Micrococcal nuclease = Micrococcal nuclease (Staphylococcus aureus, UniProt P00644); experiment: Nuclease stability by polyacrylamide gel; type: in vitro ADME; settings: 0-12 h, 37° C.
Description: The reactions were then stopped by the addition of EDTA (50 mM), and the fluorescent samples were analyzed on 10% polyacrylamide gels and examined under long-wavelength ultraviolet illumination to detect possible nucleolytic cleavage of the Tamra-labeled oligonucleotides.

A375SM-Luc705-B cells [1] = experiment: Subcellular distribution and co-localization by confocal fluorescence microscopy (peptide conjugate); type: cell-based; settings: living cells; 200 nM, complex 100 nM
Excerpt: (§1) Cell Uptake, Confocal Fluorescence Microscopy, and Flow Cytometry: Total cellular uptake of Tamra-labeled oligonucleotides was monitored using a Nanodrop microfluorimeter (Nanodrop Technologies, Wilmington, Del., United States of America). After treatment with oligonucleotides the cells were lysed in a mild non-ionic detergent buffer and the Tamra fluorescence (emission 583 nm) was quantitated based on a linear standard curve of unconjugated Tamra in buffer. Intracellular distribution of Tamra-labeled oligonucleotides was examined using an Olympus Confocal FV300 fluorescent microscope (Olympus America Inc., Center Valley, Pa., United States of America) with 60X-oil immersion objective, as previously described. See Astriab-Fisher et al. (2004) Biochem. Pharmacol., 68, 403-407. Expression levels of αvβ3 were monitored by immunostaining with an anti-human-αvβ3 monoclonal (Chemicon, Temecula, Calif., United States of America) followed by an Alexa 488 rabbit antimouse secondary antibody, with analysis by flow cytometry using a DakoCytomation (Glostrop, Denmark) machine.

A375SM-Luc705-B cells [2] = experiment: Confocal microscopy of live cells, albumin conjugates; type: cell-based; settings: 100 nM, 24 h
Description: Cellular Uptake and Confocal Microscopy: Cells were seeded onto either 12 well plates at 1×10^5 cells per well for cellular uptake measurements or in 12 well glass-bottom plates at 2×10^4 cells per well for live cell analysis by confocal microscopy. After treatment of cells with Tamra labeled oligonucleotide derivatives for 24 h, the cells were either lysed for measurement of Tamra fluorescence using a Nanodrop microfluorimeter (Nanodrop Technologies, Wilmington, Deleware, United States of America) or washed with DMEM containing 10% FBS and then placed in DMEM without phenol red, supplemented with 1% FBS, for confocal microscopy analysis. Co-localization of Tamra-labeled oligonucleotides with Alexa 488 labeled Transferrin or Dextran (Molecular Probes, Beaverton, Oreg., United States of America) in live cell was also examined by confocal microscopy. An Olympus confocal microscope with a 60× objective lens was used, and the data were processed using Fluoview software (Olympus, Center Valley, Pa., United States of America) as described in Example 1.

A375SM-Luc705-B cells [3] = experiment: Short-term toxicity, viable cell count after 48 h (peptide conjugate); type: cell-based; settings: concentrations up to 1000 nM, 48 h
Description: Toxicity Studies: Cells were treated with various concentrations of oligonucleotides or conjugates under the same conditions as used for the luciferase induction experiments. After 48 h in medium plus 1% FBS, cells were trypsinized and viable cells were counted in an electronic particle counter.

αvβ3 = experiment: Cell surface αvβ3 level by immunostaining and flow cytometry; type: cell-based, human; settings: 200 nM, 24 h exposure
Description: Then, αvβ3 levels were determined by immunostaining with anti-αvβ3 antibody. […] The y axis of each panel indicates the number of cells, while the x axis indicates the log of fluorescence intensity.
as §1

5′-GTTATTCTTTAGAATGGTGC-Tamra-3′ [623-Tamra]
stability to micrococcal nuclease (Micrococcal nuclease): gradual degradation | cellular uptake seen by confocal microscopy (A375SM-Luc705-B cells [1]): relatively little uptake was observed; also recorded: Very little fluorescence related to cellular uptake of Tamra was observed | intracellular Tamra fluorescence (A375SM-Luc705-B cells [2]): less intracellular fluorescene | nuclear accumulation of Tamra fluorescence (A375SM-Luc705-B cells [2]): No Tamra fluorophore appeared to have accumulated in nuclei | nuclear accumulation of Tamra fluorescence (A375SM-Luc705-B cells [2]; listed as 623 Tamra): no evidence of nuclear accumulation | short-term toxicity (viable cells) (A375SM-Luc705-B cells [3]): little effect | level of surface αvβ3 expression (αvβ3): no effect
